One assay addresses PRMT5-MTA (Homo sapiens, UniProt O14744). The assay can be described thus: Enzymatic inhibitory activity against PRMT5-MTA (AlphaScreen). The assay is classed as biochemical. Conditions: read-out: IC50. The procedure, abridged:
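PRMT5/[…] (1 nM) was preincubated for 30 min at room temperature with 1 µM […] and 2.5 µM SAM, then exposed to compound (10-point, 3-fold from 1000 nM) for 15 min at 23 °C. Histone H4 substrate (5 nM) was added and reacted for 45 min at 23 °C. Symmetric dimethyl-R3 H4 was detected by AlphaScreen and IC50 calculated.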

A further assay relates to HCT116 MTAP KO cells. Kind of assay: Inhibitory activity against cell proliferation (CellTiter Glo, 6 days), HCT116 MTAP KO. Conditions: for IC50: Homo sapiens, HCT-116, 144 h, HCT116 MTAP KO cells, 6 days, CellTiter Glo, read-out: HCT116 MTAP KO IC50; for Selectivity HCT 116-WT/ HCT116 MTAP KO: ratio of IC50 HCT116-WT / HCT116 MTAP KO. The assay is classed as cell-based. The procedure, abridged:
(§1)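 Viability is measured by CellTiter Glo luminescence on day 7, following a 6-day treatment with compounds serially diluted 4-fold over 8 points from 10000 nM. Both lines are plated at 250 cells per well and cultured overnight beforehand.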
Background: In ATP-based viability assays light output follows the ATP content of the culture.

The test system of another assay is HCT116-WT cells. The assay can be described thus: Inhibitory activity against cell proliferation (CellTiter Glo, 6 days), HCT116-WT. Conditions: 144 h, HCT116-WT cells, 6 days, CellTiter Glo; read-out: HCT116-WT IC50. Format: cell-based. Summed up: as §1

The source of these data is patent EP4745134A1 (Jiangsu Yahong Meditech Co., Ltd., priority 2023, dated 2025).

PRMT5-MTA, sequence (O14744 whole entry): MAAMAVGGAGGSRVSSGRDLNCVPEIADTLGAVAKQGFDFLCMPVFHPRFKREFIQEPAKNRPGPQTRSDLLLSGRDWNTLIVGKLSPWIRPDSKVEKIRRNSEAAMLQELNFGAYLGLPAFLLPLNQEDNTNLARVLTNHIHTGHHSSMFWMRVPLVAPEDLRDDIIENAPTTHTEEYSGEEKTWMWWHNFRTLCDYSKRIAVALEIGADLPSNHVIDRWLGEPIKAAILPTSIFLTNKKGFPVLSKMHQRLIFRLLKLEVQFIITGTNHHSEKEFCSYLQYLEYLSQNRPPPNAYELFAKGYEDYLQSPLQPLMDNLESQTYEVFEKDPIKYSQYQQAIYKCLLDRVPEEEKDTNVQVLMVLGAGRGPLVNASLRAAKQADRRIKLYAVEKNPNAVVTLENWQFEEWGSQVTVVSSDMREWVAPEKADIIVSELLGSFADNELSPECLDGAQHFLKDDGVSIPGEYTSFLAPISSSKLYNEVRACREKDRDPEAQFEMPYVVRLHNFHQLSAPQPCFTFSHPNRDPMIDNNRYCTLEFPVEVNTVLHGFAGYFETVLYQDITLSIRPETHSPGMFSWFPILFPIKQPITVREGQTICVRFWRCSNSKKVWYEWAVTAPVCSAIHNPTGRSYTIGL
PRMT5-MTA, sequence (Q9BQA1 whole entry partner): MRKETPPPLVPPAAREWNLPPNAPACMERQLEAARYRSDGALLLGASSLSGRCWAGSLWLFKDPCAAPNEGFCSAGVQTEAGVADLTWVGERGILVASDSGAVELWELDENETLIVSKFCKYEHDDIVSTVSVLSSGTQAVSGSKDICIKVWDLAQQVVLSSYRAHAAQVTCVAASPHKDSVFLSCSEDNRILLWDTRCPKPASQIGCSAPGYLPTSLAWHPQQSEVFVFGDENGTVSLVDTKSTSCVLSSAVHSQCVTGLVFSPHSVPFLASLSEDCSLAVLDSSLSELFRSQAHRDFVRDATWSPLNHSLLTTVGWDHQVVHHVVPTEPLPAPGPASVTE

For `Cc1cc2cc(C(=O)N(Cc3ccc(-c4scnc4C)cn3)N(C)c3ncccn3)ccc2nc1N` [Example 235, 2-amino-N',3-dimethyl-N-((5-(4-methylthiazol-5-yl)pyridin-2-yl)methyl)-N'-(pyrimidin-2-yl)quinoline-6-carbohydrazide], the IC50 (usually the concentration at which inhibition is half-maximal) is 3.8 nM on PRMT5-MTA, 5.7 nM with HCT116 MTAP KO cells and 183 nM in the assay with HCT116-WT cells. For the same molecule, the “Selectivity HCT 116-WT/ HCT116 MTAP KO” value in the assay on HCT116 MTAP KO cells came to 32.11.

Regarding `C=Cc1cc2cc(C(=O)N(Cc3ccc(C(F)(F)F)cn3)N(C)c3ncccn3)ccc2nc1N` [Example 304, 2-amino-N'-methyl-N'-(pyrimidin-2-yl)-N-((5-(trifluoromethyl)pyridin-2-yl)methyl)-3-v inylquinoline-6-carbohydrazide], the IC50 on PRMT5-MTA was determined as 3.9 nM; with HCT116 MTAP KO cells it was 204 nM; in the assay on HCT116-WT cells, 3630 nM. Moreover, the “Selectivity HCT 116-WT/ HCT116 MTAP KO” value in the assay with HCT116 MTAP KO cells is reported as 17.81.

Turning to `Cc1cc2cc(C(=O)N(Cc3ccc(-c4cccnc4)cn3)N(C)c3ncccn3)ccc2nc1N` [Example 172, N-([3,3'-bipyridine]-6-ylmethyl)-2-amino -N',3-dimethyl-N'-(pyrimidin-2-yl)quinoline-6-carbohydrazide], the results for the IC50 on PRMT5-MTA, in the assay on HCT116 MTAP KO cells and in the assay on HCT116-WT cells were 2.1 nM, 24 nM and 1750 nM, respectively. Also, the “Selectivity HCT 116-WT/ HCT116 MTAP KO” value with HCT116 MTAP KO cells was 73.08.

Take `CN(c1ncccn1)N(Cc1ccc(C(F)(F)F)cn1)C(=O)c1ccc2nc(N)c(C3CC3)cc2c1` [Example 25, 2-amino-3-cyclopropyl-N'-methyl-N'-(pyrimidin-2-yl)-N-((5-(trifluoromethyl)pyridin-2-yl)methyl)quinoline-6-carbohydrazide]: the IC50 at PRMT5-MTA was 2 nM; in the assay on HCT116 MTAP KO cells, 110 nM; with HCT116-WT cells, 2820 nM. The “Selectivity HCT 116-WT/ HCT116 MTAP KO” value in the assay on HCT116 MTAP KO cells was 25.64.

`Cc1cc2cc(C(=O)N(Cc3ccc(C(F)(F)F)cn3)N(C)c3ncc4ccccc4n3)ccc2nc1N` [Example 109, 2-amino-N',3-dimethyl-N'-(quinazolin-2-yl)-N-((5-(trifluoromethyl)pyridin-2-yl)methyl)quinoline-6-carbohydrazide]: the IC50 on PRMT5-MTA was found to be 1.2 nM; in the assay with HCT116 MTAP KO cells, 74 nM; in the assay with HCT116-WT cells, 1070 nM. Besides, the “Selectivity HCT 116-WT/ HCT116 MTAP KO” value in the assay on HCT116 MTAP KO cells worked out at 14.41.

Take `Cn1ncc2c(N)nc3cc(Cl)c(C(=O)N4CC(F)(F)CN4c4ncc(Cl)cc4F)cc3c21` [Example 460, (4-amino-7-chloro-1-methyl-1H-pyrazolo [4,3-c]quinolin-8-yl)(2-(5-chloro-3-fluoropyridin-2-yl)-4,4-difluoropyrazolidin-1-yl)methanone]: the IC50 at PRMT5-MTA is 8.2 nM; in the assay with HCT116 MTAP KO cells it was 18 nM; in the assay with HCT116-WT cells it was 479 nM. In addition, the “Selectivity HCT 116-WT/ HCT116 MTAP KO” value in the assay with HCT116 MTAP KO cells was 26.61.

As for `Cc1cc2cc(C(=O)N(Cc3ccc(-c4cnc5ccccc5c4)cn3)N(C)c3ncccn3)ccc2nc1N` [Example 197, 2-amino-N',3-dimethyl-N'-(pyrimidin-2-yl)-N-((5-(quinolin-3-yl)pyridin-2-yl)methyl)quinoline-6-carbohydrazide], the IC50 was 1.1 nM on PRMT5-MTA, 34 nM with HCT116 MTAP KO cells and 645 nM in the assay with HCT116-WT cells. Moreover, the “Selectivity HCT 116-WT/ HCT116 MTAP KO” value with HCT116 MTAP KO cells was found to be 18.97.

Regarding `Cc1cc2cc(C(=O)N(Cc3ccc(C4=CCOC4)cn3)N(C)c3ncccn3)ccc2nc1N` [Example 186, 2-amino-N-((5-(2,5-dihydrofuran-3-yl)pyridin-2-yl)methyl)-N',3-dimethyl-N'-(pyrimidin-2-yl)quinoline-6-carbohydrazide], the IC50 on PRMT5-MTA turned out to be 5.6 nM; with HCT116 MTAP KO cells, 122 nM; in the assay on HCT116-WT cells, 2830 nM. Also, the “Selectivity HCT 116-WT/ HCT116 MTAP KO” value in the assay on HCT116 MTAP KO cells was 23.20.

`Cc1cc2cc(C(=O)N(Cc3ccc(-c4ccncc4)cn3)N(C)c3ncccn3)ccc2nc1N` [Example 173, N-([3,4'-bipyridine]-6-ylmethyl)-2-amino -N',3-dimethyl-N'-(pyrimidin-2-yl)quinoline-6-carbohydrazide]: the IC50 at PRMT5-MTA was 1.9 nM; with HCT116 MTAP KO cells, 21 nM; in the assay with HCT116-WT cells, 633 nM. Moreover, the “Selectivity HCT 116-WT/ HCT116 MTAP KO” value in the assay with HCT116 MTAP KO cells is given as 30.14.

As for `Cc1cc2nc(N)c3cnn(C)c3c2cc1C(=O)N1CC(C)CN1c1ccc(F)cn1` (centres unmarked) [Example 346, (4-amino-1,7-dimethyl-1H-pyrazolo[4,3-c]quinolin-8-yl)(2-(5-fluoropyridin-2-yl)-4-methylpyrazolidin-1-yl)methanone], the IC50 on PRMT5-MTA was 3.6 nM; with HCT116 MTAP KO cells, 53 nM; in the assay with HCT116-WT cells it was 2190 nM. In the assay on HCT116 MTAP KO cells, the “Selectivity HCT 116-WT/ HCT116 MTAP KO” value was 41.25.

Turning to `Cc1cc2cc(C(=O)N(Cc3ccc(-c4ccccn4)cn3)N(C)c3ncccn3)ccc2nc1N` [Example 141, N-([2,3'-bipyridine]-6'-ylmethyl)-2-amino -N',3-dimethyl-N'-(pyrimidin-2-yl)quino line-6-carbohydrazide], the values for the IC50 on PRMT5-MTA, in the assay on HCT116 MTAP KO cells and in the assay on HCT116-WT cells were 2.3 nM, 76 nM and 2030 nM, respectively. The “Selectivity HCT 116-WT/ HCT116 MTAP KO” value in the assay with HCT116 MTAP KO cells is reported as 26.76.

For the molecule `COc1nc(C)ccc1-c1ccc(CN(C(=O)c2ccc3nc(N)c(C)cc3c2)N(C)c2ncccn2)nc1` [Example 137, 2-amino-N-((2'-methoxy-6'-methyl-[3,3'-bipyridine]-6-yl)methyl)-N',3-dimethyl-N'-(pyrimidin-2-yl)quinoline-6-carbohydrazide], the values for the IC50 on PRMT5-MTA, in the assay on HCT116 MTAP KO cells and in the assay on HCT116-WT cells were 1.3 nM, 110 nM and 1990 nM, respectively. Besides, the “Selectivity HCT 116-WT/ HCT116 MTAP KO” value in the assay with HCT116 MTAP KO cells amounted to 18.07.

For `Cn1ncc2c(N)nc3cc(Cl)c(C(=O)N4CC(C)(F)CN4c4ncc(F)cc4F)cc3c21` (centres unmarked) [Example 424, (4-amino-7-chloro-1-methyl-1H-pyrazolo [4,3-c]quinolin-8-yl)(2-(3,5-2 fluoropyridin-2-yl)-4-fluoro-4-methylpyrazolidin-1-yl)methanone], the IC50 on PRMT5-MTA came out at 7.3 nM; in the assay with HCT116 MTAP KO cells it was 23 nM; in the assay with HCT116-WT cells it was 374 nM. Besides, the “Selectivity HCT 116-WT/ HCT116 MTAP KO” value in the assay with HCT116 MTAP KO cells amounted to 16.26.

As to `Cc1cc2cc(C(=O)N(Cc3ccc(C(F)(F)F)cn3)N(C)c3ncccc3OC(F)F)ccc2nc1N` [Example 93, 2-amino-N'-(3-(difluoromethoxy)pyridin-2-yl)-N',3-dimethyl-N-((5-(trifluoromethyl)pyridin-2-yl)methyl)quinoline-6-carbohydrazide], the IC50 on PRMT5-MTA was 1.4 nM; with HCT116 MTAP KO cells it was 20 nM; in the assay on HCT116-WT cells it was 612 nM. Moreover, the “Selectivity HCT 116-WT/ HCT116 MTAP KO” value in the assay with HCT116 MTAP KO cells is on record as 30.60.

As for `Cn1ncc2c(N)nc3cc(Cl)c(C(=O)N4CC5(CN4c4ncc(Br)cc4F)CC(F)(F)C5)cc3c21` [Example 413, (4-amino-7-chloro-1-methyl-1H-pyrazolo [4,3-c]quinolin-8-yl)(7-(5-bromo-3-fluor opyridin-2-yl)-2,2-difluoro-6,7-diazaspiro[3.4]octan-6-yl)methanone], the values for the IC50 on PRMT5-MTA, in the assay on HCT116 MTAP KO cells and with HCT116-WT cells were 4.3 nM, 26 nM and 390 nM, respectively. Moreover, the “Selectivity HCT 116-WT/ HCT116 MTAP KO” value in the assay on HCT116 MTAP KO cells is reported as 15.00.

As for `Cc1cc2cc(C(=O)N(Cc3ccc(C(F)(F)F)cn3)N(C)c3nccc4ncccc34)ccc2nc1N` [Example 108, 2-amino-N',3-dimethyl-N'-(1,6-naphthyridin-5-yl)-N-((5-(trifluoromethyl)pyridin-2-yl)methyl)quinoline-6-carbohydrazide], the results for the IC50 at PRMT5-MTA, with HCT116 MTAP KO cells and with HCT116-WT cells were 1.9 nM, 141 nM and 3420 nM, respectively. The “Selectivity HCT 116-WT/ HCT116 MTAP KO” value in the assay on HCT116 MTAP KO cells turned out to be 24.26.

As to `Cc1cc2nc(N)c3cnn(C)c3c2cc1C(=O)N1CC(C)CN1c1ccncc1F` (centres unmarked) [Example 379, (4-amino-1,7-dimethyl-1H-pyrazolo[4,3-c]quinolin-8-yl)(2-(3-fluoropyridin-4-yl)-4-methylpyrazolidin-1-yl)methanone], the IC50 at PRMT5-MTA came to 7.8 nM; in the assay with HCT116 MTAP KO cells, 40 nM; in the assay with HCT116-WT cells, 1820 nM. Moreover, the “Selectivity HCT 116-WT/ HCT116 MTAP KO” value in the assay on HCT116 MTAP KO cells is 45.38.

On to `COC1CN(C(=O)c2cc3c(cc2Cl)nc(N)c2cnn(C)c23)N(c2cccc(F)n2)C1` (centres unmarked) [Example 448, (4-amino-7-chloro-1-methyl-1H-pyrazolo [4,3-c]quinolin-8-yl)(2-(6-fluoropyridin-2-yl)-4-methoxypyrazolidin-1-yl)methanone], for which the IC50 worked out at 5.1 nM on PRMT5-MTA, 27 nM with HCT116 MTAP KO cells and 586 nM with HCT116-WT cells. The “Selectivity HCT 116-WT/ HCT116 MTAP KO” value with HCT116 MTAP KO cells is on record as 21.70.

In the case of `[2H]C([2H])([2H])c1cc2cc(C(=O)N(Cc3ccc(C(F)(F)F)cn3)N(c3ncccn3)C([2H])([2H])[2H])ccc2nc1N` [Example 311, 2-amino-N',3-bis(methyl-D3)-N'-(pyrimidin-2-yl)-N-((5-(trifluoromethyl)pyridin-2-yl)methyl)quinoline-6-carbohydrazide], the figures for the IC50 at PRMT5-MTA, in the assay with HCT116 MTAP KO cells and in the assay on HCT116-WT cells were 3 nM, 59 nM and 1760 nM, respectively. Further, the “Selectivity HCT 116-WT/ HCT116 MTAP KO” value in the assay with HCT116 MTAP KO cells is listed as 29.78.

Regarding `Cc1cc2nc(N)c3cnn(C)c3c2cc1C(=O)N1CC(C)CN1c1ccccn1` (centres unmarked) [Example 368, (4-amino-1,7-dimethyl-1H-pyrazolo[4,3-c]quinolin-8-yl)(4-methyl-2-(pyridin-2-yl)pyrazolidin-1-yl)methanone], the IC50 on PRMT5-MTA is 4.7 nM; with HCT116 MTAP KO cells, 37 nM; in the assay with HCT116-WT cells it was 2900 nM. Also, in the assay on HCT116 MTAP KO cells, the “Selectivity HCT 116-WT/ HCT116 MTAP KO” value was found to be 78.51.
